Laboratory results published in US8618163B2, “Derivatives of cycloalkyl- and cycloalkenyl-1,2-dicarboxylic acid compounds having formyl peptide receptor like-1 (FPRL-1) agonist or antagonist activity” (Allergan, Inc., priority 2010, dated 2013).
Where two headings read alike, the source gives them in different places.

Legend:
[1] = target: T1, FPRL1 (Homo sapiens, UniProt P25090); assay: compound-induced calcium activity on FLIPR Tetra in CHO-Gal6 cells stably expressing FPRL1; assay type: cell-based; conditions: for FPRL1 (rel. eff.): relative efficacy
T1 construct: expressed in transfected cells; host or cells: CHO-Gal6 (CHO cells with G alpha 16)
T1 sequence (P25090 1-351): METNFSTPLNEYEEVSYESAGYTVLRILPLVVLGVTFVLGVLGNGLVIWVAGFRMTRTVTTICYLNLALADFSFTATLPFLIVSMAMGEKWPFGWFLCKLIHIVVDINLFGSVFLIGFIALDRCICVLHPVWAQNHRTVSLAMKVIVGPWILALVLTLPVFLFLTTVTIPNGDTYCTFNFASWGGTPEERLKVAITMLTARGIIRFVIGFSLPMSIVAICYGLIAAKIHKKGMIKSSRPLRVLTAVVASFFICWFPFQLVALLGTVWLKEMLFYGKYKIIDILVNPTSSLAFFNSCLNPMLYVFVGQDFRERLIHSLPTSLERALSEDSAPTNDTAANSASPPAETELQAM
Method: (§1) CHO-Gal6 cells stably expressing FPRL1 were cultured in (F12, 10% FBS, 1% PSA, 400 μg/ml geneticin and 50 μg/ml hygromycin) and HEK-Gqi5 cells stable expressing FPR1 were cultured in (DMEM high glucose, 10% FBS, 1% PSA, 400 μg/ml geneticin and 50 μg/ml hygromycin). In general, the day before the experiment, 18,000 cells/well were plated in a 384-well clear bottom poly-d-lysine coated plate. The following day the screening compound-induced calcium activity was assayed on the FLIPR^Tetra. The drug plates were prepared in 384-well microplates using the EP3 and the MultiPROBE robotic liquid handling systems. Compounds were tested at concentrations ranging from 0.61 to 10,000 nM. Results are expressed as EC50 (nM) and efficacy values.

[2] = target: T2, FPR1 (Homo sapiens, UniProt P21462); assay: compound-induced calcium activity on FLIPR Tetra in HEK-Gqi5 cells stable expressing FPR1; assay type: cell-based; parameters: FPR1 (rel. eff.): scale not given here; conditions: for FPR1 (rel. eff.): relative efficacy
T2 construct: expressed in transfected cells; host or cells: HEK-Gqi5 (HEK cells with chimeric G protein Gqi5)
T2 sequence (P21462 1-350): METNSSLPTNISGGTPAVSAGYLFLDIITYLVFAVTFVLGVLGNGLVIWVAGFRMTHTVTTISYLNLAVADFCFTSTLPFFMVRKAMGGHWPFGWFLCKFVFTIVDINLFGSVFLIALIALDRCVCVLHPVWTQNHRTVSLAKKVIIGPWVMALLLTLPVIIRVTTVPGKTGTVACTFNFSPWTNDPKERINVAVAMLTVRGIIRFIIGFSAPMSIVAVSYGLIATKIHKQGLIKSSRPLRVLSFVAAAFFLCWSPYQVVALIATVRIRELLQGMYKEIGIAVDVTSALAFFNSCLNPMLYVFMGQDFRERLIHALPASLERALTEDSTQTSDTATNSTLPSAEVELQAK
Method: as §1

[3] = calcium, FLIPR Tetra, tested 0.61 to 10,000 nM, read-out: FPRL1 EC50
[4] = class symbol NA, read-out: FPR1 EC50 (NA = Not Active)
[5] = class symbol NA, read-out: FPRL1 EC50 (NA = Not Active)

| Compound | EC50 [1, 3] [µM] | FPRL1 (rel. eff.) ([1]; calcium, FLIPR Tetra) | EC50 [2, 4] [µM] | EC50 [1, 5] [µM] | EC50 ([2]; cells printed in μM, read-out: FPR1 EC50) [µM] | FPR1 (rel. eff.) ([2]; calcium, FLIPR Tetra) | EC50 ([2]; calcium, FLIPR Tetra, tested 0.61 to 10,000 nM, read-out: FPR1 EC50) [µM] |
| --- | --- | --- | --- | --- | --- | --- | --- |
| C[S+]([O-])c1ccc(NC(=O)C2C(C(=O)O)C3CCC2C32CC2)cc1 (racemic) [Compound 44, (+/−)-(1R,2S,3R,4S)-3-((4-(Methylsulfinyl)phenyl)carbamoyl)spiro[bicyclo-[2.2.1]heptane-7,1′-cyclopropane]-2-carboxylic Acid] | 0.475 | 0.95 | > 10 |  |  |  |  |
| O=C(Nc1ccc(Br)cc1)C1C(CO)C2C=CC1C21CC1 (racemic) [Compound 58, (+/−)-(1R,4S,5R,6S)—N-(4-Bromophenyl)-6-(hydroxymethyl)spiro[bicyclo[2.2.1]-hept[2]ene-7,1′-cyclopropane]-5-carboxamide] | 0.229 | 0.91 | > 10 |  |  |  |  |
| CC(C)(C)c1ccc(NC(=O)C2C(C(=O)O)C3C=CC2C32CC2)cc1 (racemic) [Compound 5, (+/−)-(1R,4S,5R,6S)-5-(4-tert-Butylphenylcarbamoyl)spiro[bicyclo[2.2.1]hept[2]ene-7,1′-cyclopropane]-6-carboxylic Acid] |  |  | > 10 | > 10 |  |  |  |
| CC(=O)c1ccc(NC(=O)C2C(C(=O)O)C3C=CC2C32CC2)cc1 (racemic) [Compound 32, (+/−)-(1R,4S,5R,6S)-5-((4-Acetylphenyl)carbamoyl)spiro[bicyclo[2.2.1]hept[2]ene-7,1′-cyclopropane]-6-carboxylic Acid] | 0.277 | 0.96 | > 10 |  |  |  |  |
| CCc1ccc(NC(=O)[C@H]2[C@@H](C(N)=O)[C@H]3CC[C@@H]2C3(C)C)cc1 (racemic) [Compound 65, (+/−)-(1S,2R,3S,4R)—N^2-(4-Ethylphenyl)-7,7-dimethyl-bicyclo[2.2.1]heptane-2,3-dicarboxamide] | 0.035 | 0.95 | > 10 |  |  |  |  |
| O=C(O)C1C(C(=O)Nc2ccc(OC(F)(F)F)cc2)C2C=CC1C21CC1 (racemic) [Compound 34, (+/−)-(1S,4R,5S,6R)-6-β4-(Trifluoromethoxy)phenyl)carbamoyl)spiro[bicyclo-[2.2.1]hept[2]ene-7,1′-cyclopropane]-5-carboxylic Acid] | 0.585 | 0.96 | > 10 |  |  |  |  |
| CN(C(=O)[C@H]1[C@@H](C(=O)O)[C@H]2CC[C@@H]1C21CC1)c1ccc(Br)cc1 (racemic) [Compound 88, (+/−)-(1S,2R,3S,4R)-2-((4-Bromophenyl)(methyl)carbamoyl)spiro[bicyclo[2.2.1]heptane-7,1′-cyclopropane]-3-carboxylate] | 0.41 | 0.94 | > 10 |  |  |  |  |
| NS(=O)(=O)c1ccc(NC(=O)C2C(C(=O)O)C3C=CC2C32CC2)cc1 (racemic) [Compound 8, (+/−)-(1S,4R,5S,6R)-6-(4-Sulfamoylphenylcarbamoyl)spiro[bicyclo[2.2.1]hept[2]ene-7,1′-cyclopropane]-5-carboxylic Acid] | 2.71 | 0.51 | > 10 |  |  |  |  |
| CC1(C)[C@@H]2CC[C@H]1[C@@H](C(=O)Nc1ccc(I)cc1)[C@H]2C(N)=O (racemic) [Compound 55, (+/−)-(1S,2R,3S,4R)—N2-(4-Iodophenyl)-7,7-dimethylbicyclo[2.2.1]heptane-2,3-dicarboxamide] |  | 0.81 | > 10 |  |  |  |  |
| CCc1ccc(NC(=O)C2C(C(=O)O)C3C=CC2C32CC2)cc1 (racemic) [Compound 36, (+/−)-(1S,4R,5S,6R)-6-((4-Ethylphenyl)carbamoyl)spiro[bicyclo[2.2.1]hept[2]ene-7,1′-cyclopropane]-5-carboxylic Acid] | 0.059 | 0.91 | > 10 |  |  |  |  |
| CCc1ccc(NC(=O)[C@H]2[C@@H](C(N)=O)[C@H]3CC[C@@H]2C32CC2)cc1 (racemic) [Compound 52, (+/−)-(1S,2R,3S,4R)—N^2-(4-Ethylphenyl)spiro[bicyclo[2.2.1]heptane-7,1′-cyclopropane]-2,3-dicarboxamide] | 0.033 | 0.97 | > 10 |  |  |  |  |
| NC(=O)C1C(C(=O)Nc2ccc(Br)cc2)C2CCC1C21CC1 (racemic) [Compound 46A] | 6.52 | 0.85 | > 10 |  |  |  |  |
| N=C[C@@H]1[C@H](C(=O)Nc2ccccc2)[C@@H]2CC[C@H]1C21CC1 (racemic) [Compound 93, (+/−)-(1S,2R,3S,4R)-3-(Iminomethyl)-N-phenylspiro[bicyclo[2.2.1]heptane-7,1′-cyclopropane]-2-carboxamide] | 5.81 | 0.58 | > 10 |  |  |  |  |
| O=C(Nc1ccc(Br)cc1)[C@H]1[C@@H](C=NO)[C@H]2CC[C@@H]1C21CC1 (racemic) [Compound 92, (+/−)-(1S,2R,3S,4R)—N-(4-Bromophenyl)-3-((hydroxyimino)methyl)spiro[bicyclo[2.2.1]heptane-7,1′-cyclopropane]-2-carboxamide] | 4.38 | 0.5 | > 10 |  |  |  |  |
| CC1(C)C2CCC1C(C(=O)Nc1ccc(I)cc1)C2C(N)=O (racemic) [Compound 61, (+/−)-(1S,2R,3S,4R)—N^2-(4-Iodophenyl)-7,7-dimethylbicyclo[2.2.1]heptanes-2,3-dicarboxamide] |  | 0.82 | > 10 |  |  |  |  |
| NC(=O)C1C(C(=O)Nc2ccc(Br)cc2)C2CCC1C21CC1 (racemic) [Compound 46B] | < 0.001 | 0.91 |  |  | > 40 | 0.30 |  |
| O=C(O)[C@@H]1[C@H](C(=O)Nc2ccc3c(c2)oc2ccccc23)[C@@H]2CC[C@H]1C21CC1 (racemic) [Compound 31, (+/−)-(1S,4R,5S,6R)-6-(dibenzo[b,d]furan-3-ylcarbamoyl)spiro[bicyclo[2.2.1]-heptane-7,1′-cyclopropane]-5-carboxylic acid] | 2.26 | 0.9 | > 10 |  |  |  |  |
| O=C(O)C1=C(C(=O)Nc2ccc(Br)cc2)C2C=CC1C21CC1 (racemic) [Compound 72, (+/−)-(1R,4S)-2-((4-Bromophenyl)carbamoyl)spiro[bicyclo[2.2.1]-hepta[2,5]diene-7,1′-cyclopropane]-3-carboxylic Acid] | 0.617 | 0.92 | > 10 |  |  |  |  |
| N#C[C@@H]1[C@H](C(=O)Nc2ccc(Br)cc2)[C@@H]2CC[C@H]1C21CC1 (racemic) [Compound 89, (+/−)-(1S,2R,3S,4R)—N-(4-Bromophenyl)-3-cyanospiro[bicyclo[2.2.1]heptane-7,1′-cyclopropane]-2-carboxamide] | 1.09 | 0.82 | > 10 |  |  |  |  |
| CC1(C)[C@@H]2CC[C@H]1[C@@H](C(=O)Nc1ccc(Cl)cc1)[C@H]2C(=O)O (racemic) [Compound 14, (+/−)-(1R,2S,3R,4S)-3-(4-Chlorophenylcarbamoyl)-7,7-dimethylbicyclo[2.2.1]heptane-2-carboxylic Acid] | 0.036 | 0.86 | > 10 |  |  |  |  |
| O=C(O)[C@@H]1[C@H](C(=O)Nc2ccc(I)cc2)[C@@H]2CC[C@H]1C21CC1 (racemic) [Compound 9, (+/−)-(1R,2S,3R,4S)-3-(4-Iodophenylcarbamoyl)spiro[bicyclo[2.2.1]heptane-7,1′-cyclopropane]-2-carboxylic Acid] | 0.001 | 0.80 |  |  |  | 0.73 | 0.269 |
| O=C1C2C(C(O)N1c1ccc(Br)cc1)C1CCC2C12CC2 (racemic) [Compound 91, (+/−)-(3aR,4S,7R,7aS)-2-(4-Bromophenyl)-1-hydroxyhexahydro-1H-spiro[4,7-methanoisoindole-8,1′-cyclopropane]-3(2H)-one] |  |  | > 10 | > 10 |  |  |  |
| O=C(O)C1C(C(=O)Nc2ccc(Br)cn2)C2C=CC1C21CC1 (racemic) [Compound 25, (+/−)-(1S,4R,5S,6R)-6-(5-Bromo-2-pyridylcarbamoyl)spiro[bicyclo[2.2.1]hept[2]ene-7,1′-cyclopropane]-5-carboxylic Acid] | 0.149 | 0.74 | > 10 |  |  |  |  |
